The source made the active and inactive calls. No cut-off for these calls is given here.
Tests used:
RAW264.7 [1] = test: Anti-inflammatory activity in mouse RAW264.7 cells assessed as inhibition of LPS-induced NO production preincubated for 1 hr followed by LPS addition and measured after 24 hrs; format: functional, cell-based
[2] = Cytotoxicity against mouse RAW264 cells assessed as reduction in cell viability at 25 uM incubated for 24 hrs by MTT assay; format: cell-based
RAW264.7 [3] = test: Anti-inflammatory activity in mouse RAW264.7 cells assessed as reduction in LPS-induced iNOS protein level at 6.25 to 12.5 microM by Western blot analysis; format: functional, cell-based
RAW264.7 [4] = test: Anti-inflammatory activity in mouse RAW264.7 cells assessed as reduction in LPS-induced COX2 protein level at 6.25 to 12.5 microM by Western blot analysis; format: functional, cell-based
RAW264.7 [5] = test: Anti-inflammatory activity in mouse RAW264.7 cells assessed as reduction in LPS-induced IL6 level preincubated for 2 hrs followed by LPS addition and measured after 18 hrs by ELISA; format: functional, cell-based
RAW264.7 [6] = test: Anti-inflammatory activity in mouse RAW264.7 cells assessed as reduction in LPS-induced TNFalpha level preincubated for 2 hrs followed by LPS addition and measured after 18 hrs by ELISA; format: functional, cell-based
[7] = Cytotoxicity against mouse RAW264 cells assessed as reduction in cell viability up to 25 uM incubated for 24 hrs by MTT assay; format: cell-based

For COC(=O)[C@@H](N)CCCNC(=N)N[N+](=O)[O-], which inhibition (RAW264.7 [1]) is on record?
Its inhibition is “Active”.

What does the source list for C/C=C1/C(=O)C[C@H]2[C@@H]3CCC4=CC(=O)CC[C@]4(C)[C@H]3CC[C@]12C [E-GUGGULSTERONE]?
Activity [2]: Toxic; Activity (RAW264.7 [1]): Dose-dependent effect; Activity (RAW264.7 [3]): Active; Activity (RAW264.7 [4]): Active; Activity (RAW264.7 [5]): Dose-dependent effect; Activity (RAW264.7 [6]): Dose-dependent effect

Which results are given for C/C=C1\C(=O)C[C@H]2[C@@H]3CCC4=CC(=O)CC[C@]4(C)[C@H]3CC[C@]12C [GUGGULSTERONE]?
Activity [7]: Non-Toxic; Activity (RAW264.7 [1]): Dose-dependent effect

Source: ChEMBL document CHEMBL4616612, “Synthesis and inhibitory effect of cis-guggulsterone on lipopolysaccharide-induced production of nitric oxide in macrophages” (Bioorg Med Chem Lett, 2020)
